According to patent US4452786A, “Condurango glycoside compounds, processes for their preparation, antitumor agents comprising them and compositions” (Zenyaku Kogyo Kabushiki Kaisha, priority 1980, dated 1984):

Tests used:
ddy male mice = experiment: Acute toxicity, intraperitoneal administration to mice, five days observation; assay type: in vivo; details: intraperitoneally, five weeks old ddy male mice, 7200 min
Excerpt: (§1) Next, the acute toxicity of the compounds of the present invention is as follows.

Ehrlich carcinoma = experiment: Screening test against Ehrlich carcinoma, subcutaneous solid type, in mice (T/C of tumor weight on thirtieth day); assay type: in vivo, ddy male mice; details: intraperitoneally, once per day for ten days, average tumor weight on thirtieth day
Procedure: The activity of the compounds of the present invention against Ehrlich carcinoma was confirmed by the screening test mentioned below.
Ehrlich carcinoma was employed for the determination of the antitumor properties, and the tumor to be tested was of subcutaneous solid type.
The animal group to which the compounds of the present invention were administered consisted of seven mice, whereas the control group consisted of ten mice.
Six weeks old ddy male mice (body weight: 28-30 g) were employed except for the case where condurango glycoside Ao or Co was administered; in the latter case those weighing 20-26 g and being five weeks old were used.
The tumors were transplanted intraperitoneally in the mice. On the seventh day after the transplantation, the well grown cells of the tumors were taken out, and 1.5×10^6 cells (3.0×10^6 cells in the case where condurango glycoside Ao or Co was given) thereof was transplanted subcutaneously in the inguinal region of the mice to form solid tumors. At and after 24 hours after the transplantation, the compounds of the present invention dissolved in physiological saline solutions were administered to the mice intraperitoneally.
The volume of the respective solutions administered was 0.2 ml per mouse at one time, and the administration was continued for ten days at a rate of one time per day. Only physiological saline solutions were given to the mice of the control group.
On the thirtieth day after the transplantation, the tumors were taken out and measured to get the average weight of the tumors of the mice of the group to which the compounds of the present invention had been administered (T) and that of the control group (C) and to calculate the T/C (%).

[1] = Acute toxicity, intraperitoneal administration to mice, five days observation; assay type: in vivo; details: mouse, in vivo, ip, intraperitoneally, five weeks old ddy male mice
Excerpt: as §1

For `COC1CC(OC2CCC3(C)C(CCC4C3C(OC(=O)C=Cc3ccccc3)C(OC(C)=O)C35COC(C)(OC)C3CCC45O)C2)OC(C)C1OC1CC(OC)C(OC2OC(C)C(OC3OC(CO)C(O)C(O)C3O)C(OC)C2O)C(C)O1` (stereo not drawn) [20-Iso-O-methyl-condurango glycoside Do, 20-iso-O-methyl-condurango glycoside Do], the “LD50” value (ddy male mice) was 642 mg/kg, the “T/C (%)” value (Ehrlich carcinoma; 8 mg/kg × 10 times) was 38.1% and the “T/C (%)” value (Ehrlich carcinoma; 16 mg/kg × 10 times) was 26.3%. For the same compound, the “T/C (%)” value (Ehrlich carcinoma; 32 mg/kg × 10 times) was 18.0%.
With `COC1CC(OC2CCC3(C)C(CCC4C3C(OC(=O)C=Cc3ccccc3)C(OC(C)=O)C35COC(C)(OC)C3CCC45O)C2)OC(C)C1OC1CC(OC)C(OC2OC(C)C(OC3OC(CO)C(O)C(O)C3O)C(OC)C2O)C(C)O1` (stereo not drawn) [20-O-methyl-condurango glycoside Do] the LD50 at 120 h [1] was 603 mg/kg, the “T/C (%)” value (Ehrlich carcinoma; 8 mg/kg × 10 times) was 16.5% and the “T/C (%)” value (Ehrlich carcinoma; 16 mg/kg × 10 times) was 11.6%.
In the case of `COC1CC(OC2CCC3(C)C(CCC4C3C(OC(=O)C=Cc3ccccc3)C(OC(C)=O)C3(C)C(C(C)=O)CCC43O)C2)OC(C)C1OC1CC(OC)C(OC2OC(C)C(OC3OC(CO)C(O)C(O)C3O)C(OC)C2O)C(C)O1` (stereo not drawn) [Condurango glycoside Ao, condurango glycoside Ao], the LD50 at 120 h [1] is reported as 75 mg/kg, the “T/C (%)” value (Ehrlich carcinoma; 8 mg/kg × 10 times) is reported as 32.1% and the “T/C (%)” value (Ehrlich carcinoma; 16 mg/kg × 10 times) is reported as 27.3%.
In the case of `COC1CC(OC2CCC3(C)C(CCC4C3C(OC(=O)C=Cc3ccccc3)C(OC(C)=O)C35COC6(C)OC43CCC65)C2)OC(C)C1OC1CC(OC)C(OC2OC(C)C(OC3OC(CO)C(O)C(O)C3O)C(OC)C2O)C(C)O1` (stereo not drawn) [Condurango glycoside Bo, condurango glycoside Bo], the LD50 at 120 h [1] is reported as 615 mg/kg, the “T/C (%)” value (Ehrlich carcinoma; 8 mg/kg × 10 times) is reported as 23.3% and the “T/C (%)” value (Ehrlich carcinoma; 16 mg/kg × 10 times) is reported as 11.8%. The “T/C (%)” value (Ehrlich carcinoma; 32 mg/kg × 10 times) was 10.0%.
With `COC1CC(OC2CCC3(C)C(CCC4C3C(OC(=O)C=Cc3ccccc3)C(OC(C)=O)C3(C)C(C(C)O)CCC43O)C2)OC(C)C1OC1CC(OC)C(OC2OC(C)C(OC3OC(CO)C(O)C(O)C3O)C(OC)C2O)C(C)O1` (stereo not drawn) [Condurango glycoside Co, condurango glycoside Co] the LD50 at 120 h [1] was 375 mg/kg, the “T/C (%)” value (Ehrlich carcinoma; 16 mg/kg × 10 times) was 30.8% and the “T/C (%)” value (Ehrlich carcinoma; 32 mg/kg × 10 times) was 20.1%.
In the case of `COC1CC(OC2CCC3(C)C(CCC4C3C(OC(=O)C=Cc3ccccc3)C(OC(C)=O)C35COC(C)(O)C3CCC45O)C2)OC(C)C1OC1CC(OC)C(OC2OC(C)C(OC3OC(CO)C(O)C(O)C3O)C(OC)C2O)C(C)O1` (stereo not drawn) [Condurango glycoside Do, condurango glycoside Do], the LD50 at 120 h [1] is reported as 630 mg/kg, the “T/C (%)” value (Ehrlich carcinoma; 8 mg/kg × 10 times) is reported as 29.0% and the “T/C (%)” value (Ehrlich carcinoma; 16 mg/kg × 10 times) is reported as 53.8%. For the same compound, the “T/C (%)” value (Ehrlich carcinoma; 32 mg/kg × 10 times) was 9.5%.
